{"source": "paper PMC5354814", "about": "“In silico and in vitro drug screening identifies new therapeutic approaches for Ewing sarcoma” (Oncotarget, 2016)", "key": {"Rhesus monkey skin": {"tested_on": "Rhesus monkey skin", "design": "method as in ref 19 (a number printed in a supplementary file, which may have a reference list of its own: not looked up in the article's list)", "conditions": "1.5 x 10^-4M; cited from earlier work"}, "[1]": {"tested_on": "human polymorphonuclear neutrophil", "design": "method as in ref 19 (a number printed in a supplementary file, which may have a reference list of its own: not looked up in the article's list)", "conditions": "0.1 - 1.0 µg auranofin/mL; cited from earlier work"}, "Hs 919.T.": {"tested_on": "Hs 919.T.", "experiment": "In vitro high-throughput screen of FDA-approved drug library (CellTiter-Glo)", "assay_type": "cell-based", "conditions": "1 μmol/L drug, 72 hours, control cell line", "description": "(§1) We screened, in parallel to the three computational approaches, an FDA-approved drug library containing 2,316 drugs (1,536 unique chemical entities). […] The drug screening study protocol employed is summarized in Supplementary Table S1.\n(§2) Cells were grown to 80–90% confluence, harvested and aliquoted into 384-well plates (black μClear microplates, Greiner bio-one, Germany) at concentrations of 750–1,500 cells per well in a total volume of 25 μl/well using a Matrix Wellmate (Thermo Scientific). Cells were cultured for 72 hours in a 5% CO2 atmosphere at 37°C. Aliquots of 25 μl CellTiter-Glo® Reagent (Promega) were added directly to each well, the plates were incubated at room temperature for 20 min and the luminescence signal was measured according to the manufacturer's protocol. The measurements were made using Infinite® M200 Pro plate reader (Tecan, Switzerland). […] Data were normalized to percentage inhibition. […]\n(§3) (A) Color scale for drug inhibition values. […]"}, "SK-ES-1": {"tested_on": "SK-ES-1", "experiment": "In vitro high-throughput screen of FDA-approved drug library (CellTiter-Glo)", "assay_type": "cell-based", "conditions": "1 μmol/L drug, 72 hours", "description": "as §1, §2, §3"}, "RD-ES": {"tested_on": "RD-ES", "experiment": "In vitro high-throughput screen of FDA-approved drug library (CellTiter-Glo)", "assay_type": "cell-based", "conditions": "1 μmol/L drug, 72 hours", "description": "as §1, §2, §3"}, "A673": {"tested_on": "A673", "experiment": "In vitro high-throughput screen of FDA-approved drug library (CellTiter-Glo)", "assay_type": "cell-based", "conditions": "1 μmol/L drug, 72 hours", "description": "as §1, §2, §3"}, "[2]": {"design": "method as in ref 19 (a number printed in a supplementary file, which may have a reference list of its own: not looked up in the article's list)", "conditions": "dog, cited from earlier work"}, "Salmonella": {"tested_on": "Salmonella", "design": "method as in ref 18, ref 19", "conditions": "cited from earlier work"}, "A673 cells": {"tested_on": "A673 cells", "experiment": "In vivo xenograft mouse model", "description": "To assess the antitumor activity of auranofin (using an alternative delivery approach), ganetespib and the combination treatments in vivo, we generated a xenograft nude mouse model by injecting A673 cells intramuscularly proximal to the tibia. Based on the dose tolerance and pharmacokinetic studies described above, we administered auranofin at a tolerable daily i.p. dose that achieved adequate systemic drug exposure. Auranofin was administered with a dose of 12 mg/kg through an i.p. injection once a day for 5 days per week, and ganetespib was administered with a dose of 150 mg/kg through an i.v. injection once weekly. Mice that grew palpable tumors were randomized into four groups: vehicle, auranofin-only, ganetespib-only, and the combination.\nThe guidelines adopted by the Institutional Animal Care and Use Committee of the University of Kansas Medical Center (KUMC-IACUC) were followed in all performed procedures. All experimental protocols were approved by KUMC-IACUC. Homozygous athymic nude (Foxn1nu/Foxn1nu) female mice at the age of 4-weeks were purchased from Jackson Laboratories. After one week, one million A673 cells in PBS (pH = 7.3) were injected into mice. The cells were injected intramuscularly proximal to the tibia and treatment started after 15 days of inoculation. Mice developing palpable tumors were divided into 4 arms and treated for up to 18 days: vehicle (20% Cremophor RH40 and 80% D5W iv and 0.5% HPMC K4M ip), auranofin (12 mg/kg i.p. injection 5 days per week), ganetespib (150 mg/kg i.v. injection once weekly), as well as auranofin and ganetespib combined. Mice were evaluated for overall health and weighed every week. When tumor size impeded mobility, mice were sacrificed and necropsies were performed. Tumors were then dissected, measured and processed for analysis. The liver, kidneys, and spleen were also snap frozen in liquid nitrogen or fixed in 10% neutral buffered formalin and paraffin embedded for toxicity studies. Tissues were then subjected to hematoxylin and eosin (H&E) staining and immunohistochemical staining. […]"}, "[3]": {"conditions": "cited from earlier work; for grossly malformed fetuses: rabbits, days 6-18 of pregnancy"}, "human lymphocytes": {"tested_on": "human lymphocytes", "design": "method as in ref 19 (a number printed in a supplementary file, which may have a reference list of its own: not looked up in the article's list)", "conditions": "1.25 µg auranofin/mL; cited from earlier work"}, "[4]": {"conditions": "cited from earlier work; for tumors of the renal tubular epithelium: 12-month study, rats"}, "BALB/3T3 cell": {"tested_on": "BALB/3T3 cell", "design": "method as in ref 18, ref 19", "conditions": "cited from earlier work"}, "[5]": {"conditions": "cited from earlier work"}, "[6]": {"design": "method as in ref 19 (a number printed in a supplementary file, which may have a reference list of its own: not looked up in the article's list)", "conditions": "dogs, cited from earlier work"}}, "note": "Entries after “also recorded” stand apart in the source; their conditions may differ. Read-outs that look alike come from different tables or passages of the source.", "data": [{"smiles": "CC(=O)OC[C@H]1O[C@@H]([S-])[C@H](OC(C)=O)[C@@H](OC(C)=O)[C@@H]1OC(C)=O.CCP(CC)CC.[Au+]", "note": "[Auranofin, auranofin]", "values": [{"measurement": "histamine release", "setting": "Rhesus monkey skin", "value": "inhibition"}, {"measurement": "superoxide production and phagocytosis", "setting": "[1]", "value": "inhibited"}, {"measurement": "% Inhibition Hs 919.T.", "setting": "Hs 919.T.", "value": "< 50", "unit": "%"}, {"measurement": "% Inhibition SK-ES-1", "setting": "SK-ES-1", "value": 99, "unit": "%"}, {"measurement": "% Inhibition RD-ES", "setting": "RD-ES", "value": 100, "unit": "%"}, {"measurement": "% Inhibition A673", "setting": "A673", "value": 98, "unit": "%"}, {"measurement": "absorption after oral dosing", "setting": "[2]", "value": 26, "unit": "%"}, {"measurement": "blood gold in plasma proteins", "setting": "[2]", "value": 17, "unit": "%"}, {"measurement": "blood gold in red blood cells", "setting": "[2]", "value": 82, "unit": "%"}, {"measurement": "urinary excretion", "setting": "[2]", "value": 16, "unit": "%"}, {"measurement": "elimination in feces", "setting": "[2]; within 21 days", "value": 83, "unit": "%"}, {"measurement": "mutation effects", "setting": "Salmonella", "value": "no m utation effects"}, {"measurement": "survival rate versus control group", "setting": "A673 cells; auranofin 12 mg/kg i.p. 5 days per week, ganetespib 150 mg/kg i.v. once weekly, p < 0.05", "value": "significantly increased the survival rate"}, {"measurement": "toxicity or adverse effects in xenograft study", "setting": "A673 cells; auranofin 12 mg/kg i.p., ganetespib 150 mg/kg i.v.", "value": "did not show any noticeable toxicity or adverse effects"}, {"measurement": "teratogenicity in rabbits", "setting": "[3]; oral 0.5, 3 and 6 mg/kg/day", "value": "teratogenic potential"}, {"measurement": "grossly malformed fetuses", "setting": "[3]; 0.5 mg/kg/day (low)", "value": 1.9, "unit": "%"}, {"measurement": "grossly malformed fetuses", "setting": "[3]; 3 mg/kg/day (middle)", "value": 4.7, "unit": "%"}, {"measurement": "grossly malformed fetuses", "setting": "[3]; 6 mg/kg/day (high)", "value": 15.5, "unit": "%"}, {"measurement": "ADCC of human lymphocytes", "setting": "human lymphocytes", "value": "reduced"}, {"measurement": "tumors of the renal tubular epithelium", "setting": "[4]; 3.6 mg/kg/day", "value": "did not"}, {"measurement": "tumors of the renal tubular epithelium", "setting": "[4]; 23 mg/kg/day", "value": "tum ors of the renal tubular epithelium; also recorded: developed adenomas of the renal tubular epithelium"}, {"measurement": "frequency of renal tubular cell karyomegaly and cytomegaly and renal adenoma", "setting": "[4]; 24-month study in rats, auranofin 1.0 or 2.5 mg/kg/day orally, gold sodium thiomalate 2 or 6 mg/kg twice weekly", "value": "significant incr ease"}, {"measurement": "mutation effects", "setting": "BALB/3T3 cell", "value": "no m utation effects"}, {"measurement": "LD50", "setting": "[5]; Rat CD, F, PO", "value": 330, "unit": "mg/kg"}, {"measurement": "acute oral LD50", "setting": "[5]; adult rats", "value": 265, "unit": "mg/kg"}, {"measurement": "minimum lethal dose", "setting": "[5]; rats", "value": 30, "unit": "mg/kg"}, {"measurement": "lethality (LD50) in rats when given concomitantly with other drugs", "setting": "[5]; warfarin at usual human daily dose, clonidine, propoxyphene at five times, others at ten or twenty times", "value": "potentiated"}, {"measurement": "chronic toxicity, anemia in middle and high dose groups", "setting": "[6]; oral 0.6, 1.2 and 2.4-6.0 mg/kg/day, 12 months", "value": "intravascular hemolytic anemia"}, {"measurement": "subacute toxicity findings", "setting": "[6]; oral 1.8, 3.6-7.2 and 6.9-18.0 mg/kg/day, 3 months", "value": "Dose-related emesis, diarrhea, decreased food consumption"}]}]}
